Measured values taken from ChEMBL document CHEMBL4028834, “Stereoselective synthesis of enantiopure N-substituted pyrrolidin-2,5-dione derivatives by 1,3-dipolar cycloaddition and assessment of their in vitro antioxidant and antibacterial activities” (Bioorg Med Chem Lett, 2017).
Converted amounts (≈) assume the structure as drawn. The source made the active and inactive calls. No cut-off for these calls is given here.

Columns and labels:
[1] = system: Salmonella enteritidis; experiment: Antibacterial activity against Salmonella enterica serotype Enteritidis ATCC 43972 assessed as diameter of inhibition zone at 15 microg/well by agar well diffusion method; assay type: functional, Salmonella enterica subsp. enterica serovar Enteritidis; conditions: read-out: DIZ
[2] = system: Bacillus subtilis; experiment: Antibacterial activity against Bacillus subtilis JN934392 assessed as diameter of inhibition zone at 15 microg/well by agar well diffusion method; assay type: functional; conditions: read-out: DIZ
[3] = system: Escherichia coli; experiment: Antibacterial activity against Escherichia coli ATCC 25922 assessed as diameter of inhibition zone at 15 microg/well by agar well diffusion method; assay type: functional; conditions: read-out: DIZ
[4] = system: Klebsiella pneumoniae; experiment: Antibacterial activity against Klebsiella pneumoniae assessed as diameter of inhibition zone at 15 microg/well by agar well diffusion method; assay type: functional; conditions: read-out: DIZ
[5] = system: Staphylococcus aureus; experiment: Antibacterial activity against Staphylococcus aureus ATCC 6538 assessed as diameter of inhibition zone at 15 microg/well by agar well diffusion method; assay type: functional; conditions: read-out: DIZ
[6] = system: Bacillus cereus; experiment: Antibacterial activity against Bacillus cereus JN934390 assessed as diameter of inhibition zone at 15 microg/well by agar well diffusion method; assay type: functional; conditions: read-out: DIZ
[7] = system: Listeria monocytogenes; experiment: Antibacterial activity against Listeria monocytogenes assessed as diameter of inhibition zone at 15 microg/well by agar well diffusion method; assay type: functional; conditions: read-out: DIZ
[8] = system: Micrococcus luteus; experiment: Antibacterial activity against Micrococcus luteus assessed as diameter of inhibition zone at 15 microg/well by agar well diffusion method; assay type: functional; conditions: read-out: DIZ
[9] = system: Bacillus cereus; experiment: Antibacterial activity against Bacillus cereus JN934390 assessed as diameter of inhibition zone at 125 mg/ml by agar well diffusion method; assay type: functional; conditions: read-out: DIZ
[10] = system: Bacillus subtilis; experiment: Antibacterial activity against Bacillus subtilis JN934392 assessed as diameter of inhibition zone at 125 mg/ml by agar well diffusion method; assay type: functional; conditions: read-out: DIZ
[11] = Antioxidant activity assessed as reduction in beta-carotene/linoleic acid bleaching activity after 2 hrs by spectrophotometric method; assay type: functional
[12] = Antioxidant activity assessed as ABTS radical scavenging activity at 1 mg/ml incubated for 2 hrs in dark by spectrophotometric analysis (reference value: 1 to 9%); assay type: functional
[13] = Antioxidant activity assessed as DPPH free radical scavenging activity at 2 mg/ml incubated for 20 mins in dark (reference value: 1 to 9%); assay type: functional
[14] = Antioxidant activity assessed as reduction in beta-carotene/linoleic acid bleaching activity at 3 mg/ml after 2 hrs by spectrophotometric method (reference value: 1 to 8%); assay type: functional; design: scale not given: the % may be the effect or the level left
[15] = Antioxidant activity assessed as reduction in beta-carotene/linoleic acid bleaching activity at 2 mg/ml after 2 hrs by spectrophotometric method (reference value: 1 to 8%); assay type: functional; design: scale not given: the % may be the effect or the level left
[16] = system: Salmonella enteritidis; experiment: Bactericidal activity against Salmonella enterica serotype Enteritidis ATCC 43972 after 48 hrs by MTT dye based microdilution method; assay type: functional, Salmonella enterica subsp. enterica serovar Enteritidis; conditions: ATCC 43972, 48 h
[17] = Antioxidant activity assessed as reduction in beta-carotene/linoleic acid bleaching activity at 0.5 mg/ml after 2 hrs by spectrophotometric method (reference value: 1 to 8 %); assay type: functional; design: scale not given: the % may be the effect or the level left
[18] = system: Micrococcus luteus; experiment: Antibacterial activity against Micrococcus luteus assessed as diameter of inhibition zone at 125 mg/ml by agar well diffusion method; assay type: functional; conditions: read-out: DIZ
[19] = system: Micrococcus luteus; experiment: Antibacterial activity against Micrococcus luteus after 24 hrs by MTT dye based microdilution method; assay type: functional
[20] = system: Staphylococcus aureus; experiment: Antibacterial activity against Staphylococcus aureus ATCC 6538 assessed as diameter of inhibition zone at 125 mg/ml by agar well diffusion method; assay type: functional; conditions: read-out: DIZ
[21] = system: Klebsiella pneumoniae; experiment: Antibacterial activity against Klebsiella pneumoniae assessed as diameter of inhibition zone at 125 mg/ml by agar well diffusion method; assay type: functional; conditions: read-out: DIZ
[22] = system: Staphylococcus aureus; experiment: Bactericidal activity against Staphylococcus aureus ATCC 6538 after 48 hrs by MTT dye based microdilution method; assay type: functional; conditions: ATCC 6538, 48 h
[23] = system: Listeria monocytogenes; experiment: Antibacterial activity against Listeria monocytogenes after 24 hrs by MTT dye based microdilution method; assay type: functional
[24] = system: Klebsiella pneumoniae; experiment: Antibacterial activity against Klebsiella pneumoniae after 24 hrs by MTT dye based microdilution method; assay type: functional
[25] = system: Salmonella enteritidis; experiment: Antibacterial activity against Salmonella enterica serotype Enteritidis ATCC 43972 after 24 hrs by MTT dye based microdilution method; assay type: functional, Salmonella enterica subsp. enterica serovar Enteritidis; conditions: ATCC 43972, 24 h
[26] = system: Bacillus subtilis; experiment: Bactericidal activity against Bacillus subtilis JN934392 after 48 hrs by MTT dye based microdilution method; assay type: functional; conditions: JN934392, 48 h
[27] = Antioxidant activity assessed as DPPH free radical scavenging activity at 0.5 mg/ml incubated for 20 mins in dark (reference value: 1 to 9 %); assay type: functional
[28] = Antioxidant activity assessed as DPPH free radical scavenging activity incubated for 20 mins in dark; assay type: functional
[29] = Antioxidant activity assessed as DPPH free radical scavenging activity at 1 mg/ml incubated for 20 mins in dark (reference value: 1 to 9%); assay type: functional
[30] = system: Listeria monocytogenes; experiment: Antibacterial activity against Listeria monocytogenes assessed as diameter of inhibition zone at 125 mg/ml by agar well diffusion method; assay type: functional; conditions: read-out: DIZ
[31] = Antioxidant activity assessed as ABTS radical scavenging activity at 2.5 mg/ml incubated for 2 hrs in dark by spectrophotometric analysis (reference value: 1 to 9%); assay type: functional
[32] = system: Bacillus cereus; experiment: Bactericidal activity against Bacillus cereus JN934390 after 48 hrs by MTT dye based microdilution method; assay type: functional; conditions: JN934390, 48 h
[33] = system: Bacillus cereus; experiment: Antibacterial activity against Bacillus cereus JN934390 after 24 hrs by MTT dye based microdilution method; assay type: functional; conditions: JN934390, 24 h
[34] = Antioxidant activity assessed as ABTS radical scavenging activity at 0.5 mg/ml incubated for 2 hrs in dark by spectrophotometric analysis (reference value: 1 to 9 %); assay type: functional
[35] = Antioxidant activity assessed as ABTS radical scavenging activity incubated for 2 hrs in dark by spectrophotometric analysis; assay type: functional
[36] = Antioxidant activity assessed as reduction in beta-carotene/linoleic acid bleaching activity at 2.5 mg/ml after 2 hrs by spectrophotometric method (reference value: 1 to 8%); assay type: functional; design: scale not given: the % may be the effect or the level left
[37] = system: Salmonella enteritidis; experiment: Antibacterial activity against Salmonella enterica serotype Enteritidis ATCC 43972 assessed as diameter of inhibition zone at 125 mg/ml by agar well diffusion method; assay type: functional, Salmonella enterica subsp. enterica serovar Enteritidis; conditions: read-out: DIZ
[38] = system: Staphylococcus aureus; experiment: Antibacterial activity against Staphylococcus aureus ATCC 6538 after 24 hrs by MTT dye based microdilution method; assay type: functional; conditions: ATCC 6538, 24 h
[39] = Antioxidant activity assessed as ABTS radical scavenging activity at 2 mg/ml incubated for 2 hrs in dark by spectrophotometric analysis (reference value: 1 to 9%); assay type: functional
[40] = system: Bacillus subtilis; experiment: Antibacterial activity against Bacillus subtilis JN934392 after 24 hrs by MTT dye based microdilution method; assay type: functional; conditions: JN934392, 24 h
[41] = system: Escherichia coli; experiment: Antibacterial activity against Escherichia coli ATCC 25922 assessed as diameter of inhibition zone at 125 mg/ml by agar well diffusion method; assay type: functional
[42] = Antioxidant activity assessed as ABTS radical scavenging activity at 3 mg/ml incubated for 2 hrs in dark by spectrophotometric analysis (reference value: 1 to 9%); assay type: functional
[43] = Antioxidant activity assessed as DPPH free radical scavenging activity at 2.5 mg/ml incubated for 20 mins in dark (reference value: 1 to 9%); assay type: functional
[44] = Antioxidant activity assessed as DPPH free radical scavenging activity at 3 mg/ml incubated for 20 mins in dark (reference value: 1 to 9%); assay type: functional
[45] = Antioxidant activity assessed as reduction in beta-carotene/linoleic acid bleaching activity at 1 mg/ml after 2 hrs by spectrophotometric method (reference value: 1 to 8%); assay type: functional; design: scale not given: the % may be the effect or the level left
[46] = system: Micrococcus luteus; experiment: Bactericidal activity against Micrococcus luteus after 48 hrs by MTT dye based microdilution method; assay type: functional
[47] = system: Listeria monocytogenes; experiment: Potency index, ratio of compound DIZ to chloramphenicol DIZ for Listeria monocytogenes; assay type: functional
[48] = system: Klebsiella pneumoniae; experiment: Bactericidal activity against Klebsiella pneumoniae after 48 hrs by MTT dye based microdilution method; assay type: functional
[49] = system: Listeria monocytogenes; experiment: Bactericidal activity against Listeria monocytogenes after 48 hrs by MTT dye based microdilution method; assay type: functional

O=C(N[C@H](CO)[C@H](O)c1ccc([N+](=O)[O-])cc1)C(Cl)Cl [CHLORAMPHENICOL]
zone of inhibition at 15 µg/disc [1]: 16 mm
zone of inhibition at 15 µg/disc [2]: 24 mm
zone of inhibition at 15 µg/disc [3]: 23.5 mm
zone of inhibition at 15 µg/disc [4]: 22 mm
zone of inhibition at 15 µg/disc [5]: 17 mm
zone of inhibition at 15 µg/disc [6]: 26 mm
zone of inhibition at 15 µg/disc [7]: 12 mm
zone of inhibition at 15 µg/disc [8]: 20 mm

COc1ccc(N2C(=O)[C@H]3[C@H](ON4[C@@H]3C(=O)N(C)[C@@]43C[C@H](C)CC[C@H]3C(C)C)C2=O)cc1
zone of inhibition at 125000 µg/mL [9]: 12.7 mm
zone of inhibition at 125000 µg/mL [10]: 11.3 mm
IC50 [11]: 990 µg/mL (≈ 2.24 mM)
Activity [12]: 61%
Activity [13]: 61.7%
Activity [14]: 67.7%
Activity [15]: 55.7%
MBC [16]: 50000 µg/mL (≈ 113 mM)
Activity [17]: 44.5%
zone of inhibition at 125000 µg/mL [18]: 10 mm
MIC [19]: 12500 µg/mL (≈ 28.3 mM)
zone of inhibition at 125000 µg/mL [20]: 9.66 mm
zone of inhibition at 125000 µg/mL [21]: 9 mm
MBC [22]: 50000 µg/mL (≈ 113 mM)
MIC [23]: 12500 µg/mL (≈ 28.3 mM)
MIC [24]: 12500 µg/mL (≈ 28.3 mM)
MIC [25]: 3120 µg/mL (≈ 7.07 mM)
MBC [26]: 50000 µg/mL (≈ 113 mM)
Activity [27]: 32.9%
Activity [28]: Dose-dependent effect
IC50 [28]: 1120 µg/mL (≈ 2.54 mM)
Activity [29]: 48.1%
zone of inhibition at 125000 µg/mL [30]: 11 mm
Activity [31]: 71.5%
MBC [32]: 50000 µg/mL (≈ 113 mM)
MIC [33]: 6250 µg/mL (≈ 14.2 mM)
Activity [34]: 48.9%
IC50 [35]: 480 µg/mL (≈ 1.09 mM)
Activity [36]: 59.3%
zone of inhibition at 125000 µg/mL [37]: 15 mm
MIC [38]: 6250 µg/mL (≈ 14.2 mM)
Activity [39]: 68.9%
MIC [40]: 6250 µg/mL (≈ 14.2 mM)
diameter of the inhibition zone (DIZ) [41]: inactive
Activity [42]: 75.1%
Activity [43]: 65.3%
Activity [44]: 68.2%
Activity [45]: 50%

Cc1ccc(N2C(=O)[C@H]3[C@H](ON4[C@@H]3C(=O)N(C)[C@@]43C[C@H](C)CC[C@H]3C(C)C)C2=O)c(C)c1
zone of inhibition at 125000 µg/mL [9]: 21.7 mm
zone of inhibition at 125000 µg/mL [10]: 20.7 mm
IC50 [11]: 430 µg/mL (≈ 0.978 mM)
Activity [12]: 69%
MBC [46]: 50000 µg/mL (≈ 114 mM)
Activity [13]: 72%
Activity [14]: 71.3%
Activity [15]: 57%
MBC [16]: 12500 µg/mL (≈ 28.4 mM)
Activity [17]: 51%
Ratio [47]: 2
zone of inhibition at 125000 µg/mL [18]: 9.66 mm
MIC [19]: 6250 µg/mL (≈ 14.2 mM)
MBC [48]: 6250 µg/mL (≈ 14.2 mM)
zone of inhibition at 125000 µg/mL [20]: 22 mm
zone of inhibition at 125000 µg/mL [21]: 23 mm
MBC [22]: 12500 µg/mL (≈ 28.4 mM)
MIC [23]: 1560 µg/mL (≈ 3.55 mM)
MIC [24]: 3120 µg/mL (≈ 7.1 mM)
MIC [25]: 3120 µg/mL (≈ 7.1 mM)
MBC [49]: 3120 µg/mL (≈ 7.1 mM)
MBC [26]: 12500 µg/mL (≈ 28.4 mM)
Activity [27]: 49.9%
Activity [28]: Dose-dependent effect
IC50 [28]: 500 µg/mL (≈ 1.14 mM)
Activity [29]: 57%
zone of inhibition at 125000 µg/mL [30]: 24.7 mm
Activity [31]: 82.6%
MBC [32]: 25000 µg/mL (≈ 56.9 mM)
MIC [33]: 3120 µg/mL (≈ 7.1 mM)
Activity [34]: 52.9%
IC50 [35]: 420 µg/mL (≈ 0.956 mM)
Activity [36]: 65.6%
zone of inhibition at 125000 µg/mL [37]: 20.3 mm
MIC [38]: 6250 µg/mL (≈ 14.2 mM)
Activity [39]: 79.4%
MIC [40]: 3120 µg/mL (≈ 7.1 mM)
diameter of the inhibition zone (DIZ) [41]: inactive
Activity [42]: 85.8%
Activity [43]: 77.1%
Activity [44]: 73.2 to 89.3%
Activity [45]: 53.1%
